Reference: patent US7935706B2, “Nitrogen-containing heterocycle derivatives substituted with cyclic group” (Shionogi & Co., Ltd., priority 2006, dated 2011)
Where two headings read alike, the source gives them in different places.

Columns and labels:
NR1/NR2B receptor = biological target: T1, NR1/NR2B receptor (Rattus norvegicus, UniProt P35439+Q00960); experiment: Test of binding with NMDA receptor (NR1/NR2B receptor): competition with [3H]-Ifenprodil on rat cerebral cortex membrane specimen
T1 construct: from tissue; host or cells: rat cerebral cortex membranes (male Slc: Wistar rat)
Protocol: Test of Binding with NMDR Receptor (NR1/NR2B Receptor)
Using Ifenprodil which is an antagonist specific for a NR1/NR2B subtype receptor as a ligand, an experiment of competition between a receptor and a test compound was performed.
Using a male Slc: Wistar rat as an animal, a brain was isolated after decapitation, and a cerebral cortex was fractionated. The cerebral cortex was homogenized with a 20-fold amount of an ice-cooled 50 mM Tris/HCl buffer (pH 7.4), and the homogenate was centrifuged at 4° C. and 27,500×g for 10 minutes. The resulting precipitate was suspended in the same buffer, and this was again centrifuged. This operation was repeated for three times, the resulting precipitate was suspended in a buffer, and this was stored at −80° C. Immediately before an experiment, the frozen suspension was thawed at room temperature, this was centrifuged at 4° C. and 27,500×g for 10 minutes, and the resulting precipitate was suspended in a buffer. Further, the suspension was diluted 10-fold with a buffer, and this was used as a membrane specimen in an experiment. In a binding experiment, to 470 μl of the membrane specimen were added […] of each of test compounds having different concentrations, 10 μl of a labeled ligand [^3H]-Ifenprodil and 10 μl GBR-12909, followed by incubation at an ice temperature for 120 minutes. A concentration of [^3H]-Ifenprodil of the labeled ligand was finally 5 nM, and a concentration of GBR-12909 was finally 3 μM. For measuring a total binding amount, DMSO as a solvent was used and, for measuring a non-specific binding amount, 100 μM Ifenprodil was used. GBR-12909 was added in order to block binding of [^3H]-Ifenprodil to non-polyamine-sensitive site. After incubation, a bound formand a free foramwere separated using Whatman GF/C filter (manufactured by Whatman), and the filter was washed with 2.5 ml ice-cooled buffer four times. The filter was immersed in liquid scintillation (Cryasol I, manufactured by Nacalai tesque), and radioactivity (dpm) was measured with a liquid scintillation counter. From a measured value, a binding inhibition rate (%) was obtained by the following equation, and a dose at which binding is inhibited 50% (IC50) was calculated. A formula of GBR-12909 (vanoxerine) is shown below.
Binding inhibition rate(%)=100−[(binding amount in the presence of test compound−non-specific binding amount)/(total binding amount−non-specific binding amount)]×100

[1] = biological target: T2, NMDA receptor (NR1 subunit and NR2B subunit) (Mus musculus, UniProt P35438+Q01097); experiment: Measurement of expression of NMDA receptor and Ca ion influx amount (glutamic acid/glycine-induced, HEK293 cell co-expressing NR1 and NR2B subunits, Fluo-3/AM); type: cell-based
T2 construct: expressed in transfected cells; host or cells: HEK293 cells, transient transfection with pcDNA3.1 plasmids
Protocol: Measurement of Expression of NMDA Receptor and Ca Ion Influx Amount
A complementary DNA (cDNA) of a mouse NMDA receptor subunit was transiently introduced into a HEK293 cell and, after 1 day from introduction, change in a glutamic acid/glycine-induced intracelluar Ca amount was measured using a Ca ion reactive fluorescent coloring matter.
The HEK293 cell was cultured, and passaged using a modified Dulbecco's Eagle medium (DMEM, low glucose).
The HEK293 cell (20,000/well) was seeded on a 96-well plate, a NR1 subunit and a NR2B subunit of the NMDA receptor incorporated into the pcDNA3.1 plasmid were transiently introduced into a cell, and the subunits were co-expressed. An introduction amount of a DNA was 0.025 μg in the case of the NR1 subunit, and 0.075 μg in the case of NR2B subunit per well. For the cell after introduction, cell death was inhibited using 50 μM of the NMDA receptor antagonist MK-801.
For adjusting a test compound and washing a cell, Krebs/Ringer/Hepes buffer (KRH, Ca: 5 mM) was used.
After 1 day from introduction, the NMDA receptor antagonist MK-801 was washed out using the KRH buffer, and a Ca ion indication fluorescent coloring matter Fluo-3/AM was made to be taken into the cell. Ca ion influx was induced with 20 μM glutamic acid/2 μM glycine. Change in a fluorescent amount due to Ca ion influx into the cell was measured at excitation of 480 nm using a fluorescent imaging system FDSS 3000.
From a measured value of the test compound, a Ca ion influx inhibition rate (%) was obtained by the following equation, and a dose at which influx is inhibited 50% (IC50) was calculated.
Ca ion influx inhibition rate(%)=100−[(fluorescent amount in the presence of test compound−background fluorescent amount)/(total fluorescent amount−background fluorescent)]×100

[2] = [3H]-Ifenprodil 5 nM, GBR-12909 3 μM, rat cerebral cortex membranes, ice temperature 120 minutes, read-out: NR2B (IC50 μM)
[3] = Ca ion influx induced with 20 μM glutamic acid/2 μM glycine, HEK293 cell with mouse NR1/NR2B, read-out: Ca2+ IC50
[4] = same binding test, read-out: IC50 (binding with NR1/NR2B receptor)
[5] = same Ca ion influx test, read-out: IC50 (Ca ion influx inhibition)

T1 sequence (Q00960 27-1482, other chains not shown): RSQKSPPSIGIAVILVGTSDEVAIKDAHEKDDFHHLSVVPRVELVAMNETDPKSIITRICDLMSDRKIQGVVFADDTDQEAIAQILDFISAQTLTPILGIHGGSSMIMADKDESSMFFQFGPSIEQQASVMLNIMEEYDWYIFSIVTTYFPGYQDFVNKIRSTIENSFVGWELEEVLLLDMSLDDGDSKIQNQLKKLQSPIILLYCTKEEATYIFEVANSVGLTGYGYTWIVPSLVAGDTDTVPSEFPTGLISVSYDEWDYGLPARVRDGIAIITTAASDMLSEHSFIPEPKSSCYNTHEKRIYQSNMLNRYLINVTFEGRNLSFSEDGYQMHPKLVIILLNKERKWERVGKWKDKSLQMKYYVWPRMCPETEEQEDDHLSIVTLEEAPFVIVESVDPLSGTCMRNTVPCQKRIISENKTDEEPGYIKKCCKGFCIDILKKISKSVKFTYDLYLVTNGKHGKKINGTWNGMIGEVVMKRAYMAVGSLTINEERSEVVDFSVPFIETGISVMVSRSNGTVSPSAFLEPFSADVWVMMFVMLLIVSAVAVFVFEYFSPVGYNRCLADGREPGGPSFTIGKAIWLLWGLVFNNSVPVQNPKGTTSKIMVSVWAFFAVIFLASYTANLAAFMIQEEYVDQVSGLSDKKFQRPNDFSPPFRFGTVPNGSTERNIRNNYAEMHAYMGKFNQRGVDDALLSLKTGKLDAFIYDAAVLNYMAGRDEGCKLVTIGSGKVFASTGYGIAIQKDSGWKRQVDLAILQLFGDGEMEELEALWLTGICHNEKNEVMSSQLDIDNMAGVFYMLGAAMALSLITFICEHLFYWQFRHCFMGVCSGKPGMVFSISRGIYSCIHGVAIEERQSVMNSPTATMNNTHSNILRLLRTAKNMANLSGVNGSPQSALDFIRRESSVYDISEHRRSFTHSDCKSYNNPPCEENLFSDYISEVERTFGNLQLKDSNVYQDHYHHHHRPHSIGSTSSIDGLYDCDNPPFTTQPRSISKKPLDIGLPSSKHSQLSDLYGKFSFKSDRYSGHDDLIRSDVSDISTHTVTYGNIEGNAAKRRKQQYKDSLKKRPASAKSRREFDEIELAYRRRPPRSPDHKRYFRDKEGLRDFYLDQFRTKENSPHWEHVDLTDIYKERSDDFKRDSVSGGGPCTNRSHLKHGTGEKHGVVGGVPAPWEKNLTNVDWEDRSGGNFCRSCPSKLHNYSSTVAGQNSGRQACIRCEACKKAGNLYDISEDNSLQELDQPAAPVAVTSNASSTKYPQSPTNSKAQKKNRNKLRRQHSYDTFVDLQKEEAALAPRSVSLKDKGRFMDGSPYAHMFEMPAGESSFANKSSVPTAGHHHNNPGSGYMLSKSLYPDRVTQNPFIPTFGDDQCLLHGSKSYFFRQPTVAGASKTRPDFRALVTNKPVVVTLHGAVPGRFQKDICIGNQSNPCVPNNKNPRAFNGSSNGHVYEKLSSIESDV
T2 sequence (Q01097 27-1482, other chains not shown): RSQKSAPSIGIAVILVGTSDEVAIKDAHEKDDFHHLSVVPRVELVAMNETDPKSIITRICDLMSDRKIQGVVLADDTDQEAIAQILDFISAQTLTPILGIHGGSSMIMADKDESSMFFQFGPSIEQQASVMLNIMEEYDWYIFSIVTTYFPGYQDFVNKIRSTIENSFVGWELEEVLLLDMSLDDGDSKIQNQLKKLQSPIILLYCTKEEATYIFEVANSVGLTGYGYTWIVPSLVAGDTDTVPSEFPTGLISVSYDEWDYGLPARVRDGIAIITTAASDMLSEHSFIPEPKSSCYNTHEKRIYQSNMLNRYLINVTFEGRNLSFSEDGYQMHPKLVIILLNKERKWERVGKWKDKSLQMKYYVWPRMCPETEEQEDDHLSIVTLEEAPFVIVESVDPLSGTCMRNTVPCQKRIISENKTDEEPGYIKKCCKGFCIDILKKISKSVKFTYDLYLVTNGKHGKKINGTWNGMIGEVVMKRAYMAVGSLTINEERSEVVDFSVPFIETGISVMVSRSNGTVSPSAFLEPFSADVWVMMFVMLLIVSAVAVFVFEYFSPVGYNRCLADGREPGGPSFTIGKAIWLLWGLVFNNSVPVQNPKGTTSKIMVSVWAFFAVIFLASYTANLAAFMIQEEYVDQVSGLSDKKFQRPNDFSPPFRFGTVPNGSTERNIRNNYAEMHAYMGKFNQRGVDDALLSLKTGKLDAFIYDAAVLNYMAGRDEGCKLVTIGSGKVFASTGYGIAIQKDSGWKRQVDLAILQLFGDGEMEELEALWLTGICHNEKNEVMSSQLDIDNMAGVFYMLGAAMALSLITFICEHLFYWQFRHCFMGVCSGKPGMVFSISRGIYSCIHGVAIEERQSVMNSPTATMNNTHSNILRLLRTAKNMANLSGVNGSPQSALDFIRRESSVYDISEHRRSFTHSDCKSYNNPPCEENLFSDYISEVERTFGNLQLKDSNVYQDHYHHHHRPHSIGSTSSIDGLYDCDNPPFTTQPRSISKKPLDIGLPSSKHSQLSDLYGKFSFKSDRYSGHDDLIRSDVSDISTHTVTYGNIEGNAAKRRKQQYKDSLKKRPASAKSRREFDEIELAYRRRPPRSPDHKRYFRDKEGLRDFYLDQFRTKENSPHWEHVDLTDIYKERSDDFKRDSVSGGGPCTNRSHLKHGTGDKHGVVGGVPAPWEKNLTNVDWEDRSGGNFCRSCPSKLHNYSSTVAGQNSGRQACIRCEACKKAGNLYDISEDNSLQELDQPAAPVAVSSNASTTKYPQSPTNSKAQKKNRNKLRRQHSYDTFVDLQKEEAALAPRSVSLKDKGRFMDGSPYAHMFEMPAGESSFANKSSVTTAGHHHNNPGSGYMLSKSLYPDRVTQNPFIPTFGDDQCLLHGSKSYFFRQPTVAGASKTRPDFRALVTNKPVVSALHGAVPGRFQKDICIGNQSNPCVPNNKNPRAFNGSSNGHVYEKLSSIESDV

Structure (SMILES) | melting point | IC50 (NR1/NR2B receptor; [2]) [µM] | IC50 [1, 3] [nM] | IC50 (NR1/NR2B receptor; [4]) [µM] | IC50 [1, 5] [nM]
O=C(NCC1CCN(c2ccc(C(F)(F)F)cc2)CC1)c1ccc(=O)[nH]c1 [Compound I-3] | 283 to 284 °C (dec.) | – | – | – | –
O=C(NC1CCN(c2ccc(Cl)cc2)CC1)c1ccc(=O)[nH]c1 [Compound I-4] | 274 to 275 °C (dec.) | – | – | – | –
O=C(CC1(O)CCN(c2ccc(C(F)(F)F)cc2)CC1)Nc1ccc2c(c1)CCC(=O)N2 [Compound I-64] | 222 to 223 °C | – | – | – | –
O=C(Nc1ccc2[nH]c(=O)oc2c1)C(=O)N1CCN(c2ccc(Cl)cc2)CC1 [Compound I-73] | – | 0.015 | 8 | – | –
O=C(Nc1ccc2[nH]c(=O)[nH]c2c1)C(=O)N1CCN(c2ccc(C(F)(F)F)cc2)CC1 [Compound I-79] | – | 0.013 | 2 | – | –
O=C(Nc1ccc2[nH]c(=O)[nH]c2c1)C(=O)N1CCN(c2ccc(Cl)cc2)CC1 [Compound I-84] | – | – | 11 | ≤ 0.1 | –
O=C(Nc1ccc2[nH]c(=O)oc2c1)C(=O)N1CCN(c2cccc(Cl)c2)CC1 [Compound I-86] | – | – | – | ≤ 0.1 | ≤ 100
O=C(Nc1ccc2[nH]c(=O)oc2c1)C(=O)N1CCN(c2ccc(Br)cc2)CC1 [Compound I-87] | – | 0.012 | – | – | ≤ 100
O=C(Nc1ccc2[nH]c(=O)sc2c1)C(=O)N1CCN(c2ccc(Cl)cc2)CC1 [Compound I-90] | – | 0.026 | – | – | ≤ 100
O=C(Nc1ccc2[nH]c(=O)oc2c1)C(=O)N1CCN(c2ccc(C(F)(F)F)c(F)c2)CC1 [Compound I-98] | – | 0.015 | – | – | ≤ 100
O=C(Nc1ccc2[nH]c(=O)oc2c1)C(=O)N1CCN(c2ccc(F)c(F)c2)CC1 [Compound I-99] | – | – | – | ≤ 0.1 | ≤ 100
O=C(Nc1ccc2[nH]c(=O)oc2c1)C(=O)N1CCCN(c2ccc(Cl)cc2)CC1 [Compound I-100] | – | 0.074 | 10 | – | –
O=C(Nc1cnc2[nH]c(=O)[nH]c2c1)C(=O)N1CCN(c2ccc(C(F)(F)F)cc2)CC1 [Compound I-101] | – | 0.011 | 1 | – | –
O=C(Nc1ccc2[nH]c(=O)oc2c1)C(=O)N1CCN(c2ccc(C(F)(F)F)cn2)CC1 [Compound I-103] | – | 0.018 | – | – | ≤ 100
O=C(Nc1ccc2[nH]c(=O)oc2c1)C(=O)N1CCN(c2ccc(Cl)c(Cl)c2)CC1 [Compound I-104] | – | 0.016 | 1 | – | –
O=C(Nc1cnc2[nH]c(=O)oc2c1)C(=O)N1CCN(c2ccc(Cl)c(Cl)c2)CC1 [Compound I-105] | – | 0.045 | 10 | – | –
O=C(Nc1cnc2[nH]c(=O)oc2c1)C(=O)N1CCN(c2ccc(C(F)(F)F)c(F)c2)CC1 [Compound I-107] | – | – | – | ≤ 0.1 | ≤ 100
O=C(Nc1ccc2[nH]c(=O)oc2c1)C(=O)N1CCN(c2ccc(Cl)c(F)c2)CC1 [Compound I-109] | – | 0.012 | 1 | – | –
O=C(Nc1cnc2[nH]c(=O)oc2c1)C(=O)N1CCN(c2ccc(Cl)c(F)c2)CC1 [Compound I-113] | – | 0.034 | 34 | – | –

Structure (SMILES) | melting point | IC50 (NR1/NR2B receptor; [2]) [µM] | IC50 [1, 3] [nM] | IC50 (NR1/NR2B receptor; [4]) [µM] | IC50 [1, 5] [nM]
O=C(Nc1ccc2[nH]c(=O)oc2c1)C(=O)N1CCCN(c2ccc(C(F)(F)F)c(F)c2)CC1 [Compound I-114] | – | – | – | ≤ 0.1 | ≤ 100
O=C(CC1(O)CCN(c2ccc(C(F)(F)F)c(F)c2)CC1)Nc1ccc2[nH]c(=O)oc2c1 [Compound I-116] | – | 0.049 | 49 | – | –
O=C(Nc1ccc2[nH]c(=O)oc2c1)C(=O)N1CCCN(c2ccc(Cl)c(F)c2)CC1 [Compound I-154] | – | 0.044 | 4 | – | –
C[C@@H]1CN(C(=O)C(=O)Nc2ccc3[nH]c(=O)oc3c2)CCN1c1ccc(Cl)cc1 [Compound I-177] | – | 0.059 | – | – | ≤ 100
C[C@@H]1CN(c2ccc(Cl)cc2)CCN1C(=O)C(=O)Nc1ccc2[nH]c(=O)oc2c1 [Compound I-178] | – | 0.029 | – | – | ≤ 100
O=C(C=C1CCN(c2ccc(C(F)(F)F)c(F)c2)CC1)Nc1ccc2[nH]c(=O)oc2c1 [Compound I-180] | – | 0.062 | 13 | – | –
O=C(C=C1CCN(c2ccc(Cl)c(Cl)c2)CC1)Nc1ccc2[nH]c(=O)oc2c1 [Compound I-184] | – | 0.041 | 11 | – | –
O=C(CC1(O)CCN(c2ccc(Cl)c(Cl)c2)CC1)Nc1ccc2[nH]c(=O)oc2c1 [Compound I-187] | – | 0.054 | 14 | – | –
O=C(NCCC1CCN(c2ccc(Cl)c(Cl)c2)CC1)c1ccc(=O)[nH]c1 [Compound I-196] | – | 0.023 | 15 | – | –
C[C@@H]1CN(C(=O)C(=O)Nc2ccc3[nH]c(=O)oc3c2)CCN1c1ccc(Cl)c(F)c1 [Compound I-207] | – | – | – | ≤ 0.1 | ≤ 100
O=C(Nc1ccc2[nH]c(=O)oc2c1)C(=O)N1CCN(c2ccc(OC(F)(F)F)cc2)CC1 [Compound I-211] | – | – | – | ≤ 0.1 | ≤ 100
C[C@@H]1CN(c2ccc(F)c(Cl)c2)CCN1C(=O)C(=O)Nc1ccc2[nH]c(=O)oc2c1 [Compound I-221] | – | – | – | ≤ 0.1 | ≤ 100
O=C(C=C1CCN(c2ccc(OC(F)(F)F)cc2)CC1)Nc1ccc2[nH]c(=O)oc2c1 [Compound I-225] | – | – | – | ≤ 0.1 | ≤ 100
C[C@@H]1CN(c2ccc(C(F)(F)F)cn2)CCN1C(=O)C(=O)Nc1ccc2[nH]c(=O)oc2c1 [Compound I-227] | – | – | – | ≤ 0.1 | ≤ 100
C[C@@H]1CN(C(=O)C(=O)Nc2ccc3[nH]c(=O)oc3c2)CCN1c1ccc(Cl)cn1 [Compound I-228] | – | – | – | ≤ 0.1 | ≤ 100
O=C(NCCC1CCN(c2ccc(OC(F)(F)F)cc2)CC1)c1ccc(=O)[nH]c1 [Compound I-230] | – | – | – | ≤ 0.1 | ≤ 100
O=C(Nc1ccc2[nH]c(=O)oc2c1)C(=O)N1CCN(c2ccc(OC(F)F)cc2)CC1 [Compound I-233] | – | – | – | ≤ 0.1 | ≤ 100
O=C(C=C1CCN(c2ccc(OC(F)F)cc2)CC1)Nc1ccc2[nH]c(=O)oc2c1 [Compound I-237] | – | – | – | ≤ 0.1 | ≤ 100
COc1ccc(N2CCC(=CC(=O)Nc3ccc4[nH]c(=O)oc4c3)CC2)cc1F [Compound I-238] | – | – | – | ≤ 0.1 | ≤ 100
